No end group written: not given here.
Experiments:
[1] = tested on: human red blood cells (hRBC); test: Hemolytic assay; type: cell-based; conditions: 100 μM, 4% hRBC in PBS pH 7.2, 1.5 h, 37 °C, A405
Procedure: Hemolytic activity of Lc-def was studied using 96-well microplates. Fresh human red blood cells (hRBC) were washed three times with ice-cold PBS, pH 7.2. Serial two-fold dilutions of Lc-def and membrane-active peptide melittin from the venom of honeybees as positive control (final concentrations from 0.1 to 100 μM) were then added to hRBC in PBS (final concentration of 4% (v/v)). The suspension was incubated for 1.5 h at 37 °C. After, intact hRBC sedimentation aliquots of the supernatants containing released hemoglobin were transferred to 96-well microplates, and the absorbance at 405 nm was measured. hRBC in PBS or 0.1% Triton X-100 were employed as negative (control0) and positive (control100) controls, respectively. The percentage of hemolysis was calculated as: hemolysis(%) = ((Asample − Acontrol0)/(Acontrol100 − Acontrol0)) × 100%. Experiment was carried out twice in triplicate using the same blood.

[2] = tested on: CD4+ T-helper cells; test: Cytokine response by multiplex xMAP, CD4+ T-helper cells; type: cell-based, human; conditions: 2 µM, 24 h
Procedure: Colorectal adenocarcinoma Caco-2 cell line (ATCC HTB-37) was cultured in complete DMEM/F12 (1:1) medium containing 10% fetal bovine serum (FBS, Gibco) and 1X antibiotic-antimycotic solution (1XAAS, Invitrogen, Waltham, MA, USA). The acute monocytic leukemia THP-1 line (ATCC TIB-202) was cultured in complete RPMI-1640 medium, containing 10% FBS, 1XAAS, and […]. THP-1 cells were differentiated into pro-inflammatory macrophages (Mφ1) with phorbol 12-myristate 13-acetate (Sigma-Aldrich) for 24 h and subsequently polarized with lipopolysaccharide from E. coli (Sigma-Aldrich) and rhIFN-γ (Sigma-Aldrich) for another 48 h according to previously reported protocol. All cells were cultured in a humidified CO2 incubator (5% CO2, 37 °C). Primary peripheral blood mononuclear cells (PBMCs) collected from a healthy donor were purchased from American Type Culture Collection (ATCC PCS-800-011). CD4^+ T-helper and CD8^+ T cytotoxic cells were isolated from PBMCs by magnetic separation with mouse anti-human CD4-PE (clone 13B8.2, Beckman Coulter Diagnostics, Pasadena, CA, USA) and CD8-PE (clone REA734, Miltenyi Biotec, Bergisch Gladbach, Germany), Anti-PE MicroBeads (Miltenyi Biotec), and LS Separation Columns (Miltenyi Biotec). Isolated CD4^+ and CD8^+ cells were expanded separately with Dynabeads™ Human T-Expander CD3/CD28 (Gibco, Waltham, MA, USA) in RPMI-1640 supplemented with 10% FBS, 1XAAS and 100 U/mL rh-IL-2 (Gibco). Regulatory CD4^+ FoxP3^+ T cells (Tregs) were isolated from PBMCs by magnetic separation with CD4^+CD25^+ Regulatory T Cell Isolation Kit, human (Miltenyi Biotec). Primary CD14^+ blood monocytes were isolated from PBMCs by adherence according to standard technique. Monocyte-derived mature dendritic cells (moDCs) were obtained from CD14^+ blood monocytes according to the previously reported protocol. Briefly, blood monocytes were incubated in complete RPMI-1640 medium, containing 10% FBS, 1XAAS, 800 U/mL rhGM-CSF (Sci-Store, Russia, Moscow) and 500 U/mL rhIL-4 (Sci-Store) for 3 days. Fresh complete RPMI-1640 medium with rhGM-CSF and rhIL-4 was added to the culture on day 3. On day 5, fresh complete RPMI-1640 containing 100 U/mL rhTNF-α (Sigma) as well as 800 U/mL rhGM-CSF and 500 U/mL rhIL-4 was added and the culture was incubated for another 4 days until full maturation.
Caco-2 cells were seeded into the wells of a 48-well plate, coated with 0.1% bovine collagen (Sigma-Aldrich) for 24 h, 3 weeks before the experiment with complete DMEM/F12 (1:1) medium renewal every 2–3 days. Monocytes, moDCs, CD4^+ T-helper and CD8^+ T cytotoxic cells, Mφ1, and Regulatory CD4^+ FoxP3^+ T cells were seeded into the wells of 48-well plates in the complete RPMI-1640 medium supplemented with 10% Human AB serum (HABS, Capricorn Scientific, Ebsdorfergrund, Germany) and 1XAAS 24 h prior to the experiment; medium in Caco-2-containing wells was also replaced with the same medium. After 24 h, half of the medium in each well was replaced by fresh complete RPMI-1640 medium with 10% HABS, supplemented with 4 µM of Lc-def for the sample wells or fresh medium alone for the control wells. Cell cultures were kept in CO2-incubator (5% CO2, 37 °C) for another 24 h. Culture supernatants were collected 24 h later and stored at −70 °C degrees less than one month prior to the analytes assessment. […]

Substance: Lc-def: defensin from lentil Lens culinaris seeds (UniProt:B3F051), recombinant, overexpressed in Escherichia coli (KTCENLSDSFKGPCIPDGNCNKHCKEKEHLLSGRCRDDFRCWCTRNC; disulfide (positions not given here); ends not checked; also: disulfide bonds present, pairing not given here; UniProt B3F051 28-74, looked up)
- hemolysis of erythrocytes [1]: did not cause hemolysis
- EGF [2]: <1.95↓ pg/ml
- Eotaxin [2]: <3.23↓ pg/ml
- FGF-2 [2]: 0 pg/mL
- FLT-3L [2]: <0.45↓ pg/ml
- Fractalkine [2]: <23.19↓ pg/ml
- G-CSF [2]: <2.57↓ pg/ml
- GM-CSF [2]: <1.36↓ pg/ml
- GROa [2]: <0.67↓ pg/ml
- IFNa2 [2]: <4.43↓ pg/ml
- IFNg [2]: <1.99↓ pg/ml
- IL-1RA [2]: <0.83↓ pg/ml
- IL-1a [2]: 8.24 pg/mL
- IL-1b [2]: <18.72↓ pg/ml
- IL-2 [2]: <0.31↓ pg/ml
- IL-3 [2]: <0.48↓ pg/ml
- IL-4 [2]: <0.31↓ pg/ml
- IL-5 [2]: 0.97 pg/mL
- IL-6 [2]: <0.30↓ pg/ml
- IL-7 [2]: <0.33↓ pg/ml
- IL-8 [2]: <0.49↓ pg/ml
- IL-9 [2]: <1.05↓ pg/ml
- IL-10 [2]: <0.68↓ pg/ml
- IL-12 (p40) [2]: <3.02↓ pg/ml
- IL-12 (p70) [2]: <1.48↓ pg/ml
- IL-13 [2]: <5.00↓ pg/ml
- IL-15 [2]: <1.45↓ pg/ml
- IL-17A [2]: <1.55↓ pg/ml
- IL-17E/IL-25 [2]: <20.59↓ pg/ml
- IL-17F [2]: <16.96↓ pg/ml
- IL-18 [2]: <0.35↓ pg/ml
- IL-22 [2]: <8.31↓ pg/ml
- IL-27 [2]: <8.55↓ pg/ml
- IP-10 [2]: <1.56↓ pg/ml
- M-GSF [2]: <23.75↓ pg/ml
- MCP-1 [2]: <1.52↓ pg/ml
- MCP-3 [2]: <3.95↓ pg/ml
- MDC [2]: <0.35↓ pg/ml
- MIG [2]: <3.43↓ pg/ml
- MIP-1a [2]: 7.47 pg/mL
- MIP-1b [2]: 3.99 pg/mL
- PDGF-AA [2]: <7.38↓ pg/ml
- PDGF-AB/BB [2]: <9.75↓ pg/ml
- RANTES [2]: 236.88 pg/mL
- TGF-a [2]: <0.66↓ pg/ml
- TNFa [2]: <3.91↓ pg/ml
- TNFb [2]: <0.73↓ pg/ml
- VEGFa [2]: <1.27↓ pg/ml
- effects on cytokine production [2]: No effects
- sCD40L [2]: <6.66↓ pg/ml
